Laboratory results taken from PubChem BioAssay AID330 (DTP/NCI, 2004).
Values joined by “and” are separate entries in the source; they are usually repeats but may differ in a detail not shown here. Equal values may be shown once. Toxic doses and inconclusive results are not listed. Numbered stars: 1 amine (or outer) side, 2 acyl side, 3 side chain; on linkers, the order of the positions; unused ones are H or OH. Bridge positions count the residues as written; N and C are the ends. Square brackets hold non-standard residues; d marks the D form. Peptide text beside a SMILES is read from it. I, II: the chains in the order shown. * marks the point of attachment. ξ: configuration not given here. Quinaldoyl(3-OH,6-OMe) = COc1ccc2nc(C(=O)*)c(O)cc2c1; X8 = CC(=O)OC1CC=NN([*:1])C1C(=O)[*:2]; ξNMeVal(3-OH) = CNC(C(=O)O)C(C)(C)O; X20 = O=C(C1CCCNN1[*:1])[*:2]; Sar = CNCC(=O)O; For = O=C*

System: P388 leukemia ip, CD2F1 mice, survival T/C
Experiment: NCI In Vivo Anticancer Drug Screen. Data for tumor model P388 Leukemia (intraperitoneal) in CD2F1 (CDF1) mice
Conditions: endpoint: median survival time, higher = longer survival
Outline: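 Mice carrying the transplanted tumor received test compound or vehicle. Survival was recorded in each group, and the value is the treated-group measurement divided by that of the vehicle-treated control group.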

[1] = dose: 6.25 mg/kg/injection, schedule: Q01DX009 (ip), vehicle: saline
[2] = dose: 50.0 mg/kg/injection, schedule: Q01DX005 (ip), vehicle: saline with Tween-80
[3] = dose: 100.0 mg/kg/injection, schedule: Q01DX005 (ip), vehicle: saline with Tween-80
[4] = dose: 200.0 mg/kg/injection, schedule: Q01DX005 (ip), vehicle: saline with Tween-80
[5] = dose: 25.0 mg/kg/injection, schedule: Q01DX009 (ip), vehicle: saline with Tween-80
[6] = dose: 50.0 mg/kg/injection, schedule: Q01DX009 (ip), vehicle: saline with Tween-80
[7] = dose: 60.0 mg/kg/injection, schedule: Q01DX005 (ip), vehicle: saline with Tween-80
[8] = dose: 120.0 mg/kg/injection, schedule: Q01DX005 (ip), vehicle: saline with Tween-80
[9] = dose: 50.0 mg/kg/injection, schedule: Q04DX003 (ip), vehicle: saline with Tween-80
[10] = dose: 100.0 mg/kg/injection, schedule: Q04DX003 (ip), vehicle: saline with Tween-80
[11] = dose: 200.0 mg/kg/injection, schedule: Q04DX003 (ip), vehicle: saline with Tween-80
[12] = dose: 25.0 mg/kg/injection, schedule: Q04DX003 (ip), vehicle: saline with Tween-80
[13] = dose: 100.0 mg/kg/injection, schedule: Q01DX009 (ip), vehicle: saline with Tween-80
[14] = dose: 200.0 mg/kg/injection, schedule: Q01DX009 (ip), vehicle: saline with Tween-80

For Cc1c[n+]2ccccc2n1C, the T/C (dose: 1.56 mg/kg/injection, schedule: Q01DX009 (ip), vehicle: saline) was 98 % of control, the T/C (dose: 3.13 mg/kg/injection, schedule: Q01DX009 (ip), vehicle: saline) was 95 % of control and the T/C [1] was 89 % of control.

For Nc1ccc2nc3cc(Nc4ccccc4)c(=Nc4ccccc4)cc-3n(-c3ccccc3)c2c1, the T/C [2] was 100 % of control, the T/C [3] was 98 % of control and the T/C [4] was 93 % of control.

COc1ccc(S(=O)(=O)N/N=C\c2cccc([N+](=O)[O-])c2O)c(OC)c1OC was tested, and the T/C [2] was 100 % of control, the T/C [3] was 102 % of control and the T/C [4] was 96 % of control.

In the case of c1ccc2c(c1)[nH]c1ccncc12, the T/C [5] is reported as 95 % of control and the T/C [6] is reported as 95 % of control.

In the case of NC(=O)c1ccccc1OC(=O)Nc1ccc(F)cc1, the T/C (dose: 15.0 mg/kg/injection, schedule: Q01DX005 (ip), vehicle: saline with Tween-80) is reported as 101 % of control, the T/C (dose: 30.0 mg/kg/injection, schedule: Q01DX005 (ip), vehicle: saline with Tween-80) is reported as 97 % of control and the T/C [7] is reported as 99 % of control and 103 % of control. The T/C [8] was 99 % of control.

With COc1cc(C=C(C(C)=O)C(C)=O)ccc1O the T/C [9] was 100 % of control, the T/C [10] was 100 % of control and the T/C [11] was 100 % of control.

For c1ccc(C2=NCCCO2)cc1, the T/C [5] was 104 % of control, the T/C [12] was 100 % of control and the T/C [6] was 95 % of control. For the same compound, the T/C [9] was 100 % of control, the T/C [13] was 108 % of control and the T/C [10] was 100 % of control.

In the case of COc1ccc2nc(C(=O)NC3COC(=O)C(C(C)(C)O)N(C)C(=O)CN(C)C(=O)CNC(=O)C4CCCNN4C(=O)C(NC(=O)c4nc5ccc(OC)cc5cc4O)COC(=O)C(C(C)(C)O)N(C)C(=O)CN(C)C(=O)CNC(=O)C4C(OC(C)=O)CC=NN4C3=O)c(O)cc2c1 (stereo not drawn) (I: {Quinaldoyl(3-OH,6-OMe)}-S[X8]G[Sar][ξNMeVal(3-OH)] / II: {Quinaldoyl(3-OH,6-OMe)}-S[X20]G[Sar][ξNMeVal(3-OH)]; ester I:1-II:C, I:C-II:1; configuration not given here), the T/C (dose: 20.0 micrograms/kg/injection, schedule: Q01DX005 (ip), vehicle: DMSO) is reported as 97 % of control and the T/C (dose: 40.0 micrograms/kg/injection, schedule: Q01DX005 (ip), vehicle: DMSO) is reported as 87 % of control.

CCCN(CCC)CCCC#N was tested, and the T/C [5] was 90 % of control, the T/C [6] was 90 % of control and the T/C [13] was 100 % of control.

For NC(=S)NC1OC(COC(=O)c2ccccc2)C(OC(=O)c2ccccc2)C1OC(=O)c1ccccc1 (stereo not drawn), the T/C [12] was 98 % of control, the T/C [9] was 107 % of control and the T/C [10] was 100 % of control. The T/C [11] was 106 % of control.

With ClCCc1ccn[nH]1 the T/C (dose: 100.0 mg/kg/injection, schedule: Q04DX002 (ip), vehicle: saline) was 97 % of control and the T/C (dose: 200.0 mg/kg/injection, schedule: Q04DX002 (ip), vehicle: saline) was 99 % of control.

With N#CC(Cc1ccccc1Cl)C(=O)O (stereo not drawn) the T/C (dose: 12.5 mg/kg/injection, schedule: Q01DX009 (none), vehicle: saline) was 99 % of control, the T/C (dose: 25.0 mg/kg/injection, schedule: Q01DX009 (none), vehicle: saline) was 92 % of control and the T/C (dose: 50.0 mg/kg/injection, schedule: Q01DX009 (none), vehicle: saline) was 90 % of control. The T/C (dose: 100.0 mg/kg/injection, schedule: Q01DX009 (none), vehicle: saline) was 90 % of control.

For O=S1(=O)CC(N2CCCCC2)C=C(c2ccccc2)O1 (stereo not drawn), the T/C [6] was 103 % of control, the T/C [13] was 98 % of control and the T/C [14] was 95 % of control.

For C[N+](C)([O-])Cc1ccccc1C[N+](C)(C)[O-], the T/C (dose: 60.0 mg/kg/injection, schedule: Q01DX005 (ip), vehicle: saline) was 102 % of control, the T/C (dose: 120.0 mg/kg/injection, schedule: Q01DX005 (ip), vehicle: saline) was 110 % of control and the T/C (dose: 240.0 mg/kg/injection, schedule: Q01DX005 (ip), vehicle: saline) was 112 % of control.

In the case of Cc1ccc2c(c1)[C@]1(C)O[C@@H](C=C[C@@H]1O)O2, the T/C (dose: 100.0 mg/kg/injection, schedule: Q01DX001 (ip), vehicle: Klucel (hydroxypropylcellulose) (HPC)) is reported as 104 % of control and the T/C (dose: 200.0 mg/kg/injection, schedule: Q01DX001 (ip), vehicle: Klucel (hydroxypropylcellulose) (HPC)) is reported as 102 % of control.

In the case of COc1ccc(-c2coc3c4c(ccc3c2=O)OC(C)(C)C=C4)cc1, the T/C [2] is reported as 101 % of control, the T/C [3] is reported as 99 % of control and the T/C [4] is reported as 100 % of control.

In the case of Cc1ccc(NC(=O)N2CC2)cc1NC(=O)N1CC1, the T/C (dose: 0.78 mg/kg/injection, schedule: Q01DX009 (ip), vehicle: Klucel (hydroxypropylcellulose) (HPC)) is reported as 112 % of control, the T/C (dose: 3.12 mg/kg/injection, schedule: Q01DX009 (ip), vehicle: Klucel (hydroxypropylcellulose) (HPC)) is reported as 154 % of control and the T/C (dose: 6.25 mg/kg/injection, schedule: Q01DX009 (ip), vehicle: Klucel (hydroxypropylcellulose) (HPC)) is reported as 107 % of control and 90 % of control.

In the case of CC(=O)C1C(=O)C(=O)N(c2ccc(C)c(C)c2)C1=O (stereo not drawn), the T/C [2] is reported as 101 % of control, the T/C [3] is reported as 97 % of control and the T/C [4] is reported as 100 % of control.

In the case of C=C[Si](C)(C)c1ccc([Si](C)(C)C=C)cc1, the T/C [1] is reported as 107 % of control, the T/C (dose: 12.5 mg/kg/injection, schedule: Q01DX009 (ip), vehicle: saline) is reported as 105 % of control and the T/C (dose: 25.0 mg/kg/injection, schedule: Q01DX009 (ip), vehicle: saline) is reported as 117 % of control. The T/C (dose: 100.0 mg/kg/injection, schedule: Q01DX009 (ip), vehicle: saline) was 97 % of control and the T/C (dose: 200.0 mg/kg/injection, schedule: Q01DX009 (ip), vehicle: saline) was 99 % of control.

COc1ccc(OC)c(N(CCN2C(=O)c3ccccc3C2=O)C(=O)C2CCC(=O)C2C)c1 (stereo not drawn) was tested, and the T/C [7] was 99 % of control and the T/C [8] was 87 % of control.

With CC(C)CC(=O)CC(=O)CCC(=O)Nc1ccc(Cl)cc1Cl the T/C [7] was 100 % of control, the T/C [8] was 108 % of control and the T/C (dose: 240.0 mg/kg/injection, schedule: Q01DX005 (ip), vehicle: saline with Tween-80) was 100 % of control.

For CC(NC=O)C(=O)NCC(=O)NC(CO)C(=O)NC(CCC(=O)O)C(=O)O (stereo not drawn) (For-AGSE-OH; configuration not given here), the T/C (dose: 7.81 mg/kg/injection, schedule: Q01DX005 (ip), vehicle: water) was 105 % of control, the T/C (dose: 15.63 mg/kg/injection, schedule: Q01DX005 (ip), vehicle: water) was 104 % of control and the T/C (dose: 31.25 mg/kg/injection, schedule: Q01DX005 (ip), vehicle: water) was 101 % of control. The T/C (dose: 62.5 mg/kg/injection, schedule: Q01DX005 (ip), vehicle: water) was 101 % of control and the T/C (dose: 125.0 mg/kg/injection, schedule: Q01DX005 (ip), vehicle: water) was 99 % of control.

For COc1ccc(NS(=O)(=O)c2ccc(NCc3c4ccccc4nc4ccccc34)cc2)nn1, the T/C (dose: 12.5 mg/kg/injection, schedule: Q04DX002 (ip), vehicle: Klucel (hydroxypropylcellulose) (HPC)) was 96 % of control, the T/C (dose: 25.0 mg/kg/injection, schedule: Q04DX002 (ip), vehicle: Klucel (hydroxypropylcellulose) (HPC)) was 99 % of control and the T/C (dose: 50.0 mg/kg/injection, schedule: Q04DX002 (ip), vehicle: Klucel (hydroxypropylcellulose) (HPC)) was 89 % of control. The T/C (dose: 100.0 mg/kg/injection, schedule: Q04DX002 (ip), vehicle: Klucel (hydroxypropylcellulose) (HPC)) was 87 % of control, the T/C (dose: 200.0 mg/kg/injection, schedule: Q04DX002 (ip), vehicle: Klucel (hydroxypropylcellulose) (HPC)) was 91 % of control and the T/C (dose: 400.0 mg/kg/injection, schedule: Q04DX002 (ip), vehicle: Klucel (hydroxypropylcellulose) (HPC)) was 93 % of control.

With c1ccc(-c2cc3ccccc3[nH]2)cc1 the T/C [6] was 90 % of control, the T/C [13] was 104 % of control and the T/C [14] was 102 % of control.

CCCCCN(CCCCC)CC(O)c1c(OC)ccc2ccccc12 (stereo not drawn) was tested, and the T/C (dose: 12.5 mg/kg/injection, schedule: Q01DX009 (ip), vehicle: Klucel (hydroxypropylcellulose) (HPC)) was 102 % of control, the T/C (dose: 25.0 mg/kg/injection, schedule: Q01DX009 (ip), vehicle: Klucel (hydroxypropylcellulose) (HPC)) was 103 % of control and the T/C (dose: 50.0 mg/kg/injection, schedule: Q01DX009 (ip), vehicle: Klucel (hydroxypropylcellulose) (HPC)) was 94 % of control.

In the case of O=C(O)Cn1ccnc1[N+](=O)[O-], the T/C (dose: 12.5 mg/kg/injection, schedule: Q01DX009 (ip), vehicle: distilled water + Tween-80) is reported as 100 % of control, the T/C (dose: 25.0 mg/kg/injection, schedule: Q01DX009 (ip), vehicle: distilled water + Tween-80) is reported as 100 % of control and the T/C (dose: 50.0 mg/kg/injection, schedule: Q01DX009 (ip), vehicle: distilled water + Tween-80) is reported as 118 % of control. The T/C (dose: 100.0 mg/kg/injection, schedule: Q01DX009 (ip), vehicle: distilled water + Tween-80) was 90 % of control and the T/C (dose: 200.0 mg/kg/injection, schedule: Q01DX009 (ip), vehicle: distilled water + Tween-80) was 109 % of control.
